Assay results from patent publication US6825178B1, “Methods and products for treating pseudomonas infection” (The Brigham and Women's Hospital, Inc., priority 1996, dated 2004).
Marks after values point to notes of the source that are not given here.

Tests used:
[1] = system: transformed human airway epithelial cells (CFT1-LCFSN line); experiment: Inhibition of internalization of P. aeruginosa strain PAO1 into CFT1-LCFSN cells (bacterial ingestion assay); type: cell-based; conditions: strain PAO1, CFT1-LCFSN cells
Source text: Cell lines. CFT1-LCFSN cells, carrying a retrovirally introduced chromosomal copy of the wild-type human CFTR gene were kindly provided by J. Olsen, J. Yankaskis and L. Johnson from The University of North Carolina, Chapel Hill, N.C.. The cell line parental to CFT1-LCFSN is designated CFT1; it is a line of human papilloma virus 18 E6/E7 transformed bronchial epithelial cells derived from a CF patient homozygous for ΔF508 CFTR. The CFT1-LCFSN cells have normal chloride ion conductance. CFT1-ΔF508 cells are derived from CFT1 cells and carry a cDNA introduced by a retrovirus vector that encodes the ΔF508 mutant form of CFTR. Cells were grown in supplemented F-12 medium as described in 5% CO2 at 37° C.
Bacterial strains. P. aeruginosa strains used include PAO1, a well-characterized laboratory strain, and strains 149 and 324, non-mucoid, LPS-smooth clinical isolates of P. aeruginosa from CF patients early in the course of infection. Fresh cultures of P. aeruginosa grown overnight at 37° C. on a tryptic soy agar plate were suspended in supplemented medium to prepare the bacterial inoculum. Approximately 10^6 cfu of the bacterial inoculum were added per well of 10^5, epithelial cells.
Reagents for inhibition of ingestion assays. Membranes were prepared from C127 cells as described by O'Riordan et al.. Membranes were suspended in 150 mM NaCl, 50 mM Tris, pH 7.5 and 1 mM EDTA and added at the indicated concentration to suspensions of P. aeruginosa strains prior to adding this mixture to CFT1-LCFSN cells to measure bacterial uptake. Membranes from CEM/VbI cells expressing P-glycoprotein and membranes from control CEM cells lacking P-glycoprotein were obtained from James Croop of Harvard Medical School. Purified (˜85%) recombinant CFTR was obtained from Genzyme Corp., and prepared as described. The protein was solubilized in 100 mM NaCl, 10 mM Tris, pH 8.0, 2 mM di-thio-threitol and 0.1% sodium dodecyl sulfate. Monoclonal antibodies raised to synthetic peptides corresponding to the first (MAb CF3) and fourth (MAb CF4) predicted extracellular domains of CFTR, as well as a MAb specific to a peptide representing the carboxy-terminal 14 amino acids of mature CFTR (MAb CF2) were provided by Dr. George Banting, University of Bristol, Bristol, UK [12]. Synthetic peptides were obtained from Chiron Mimetopes, San Diego, Calif. Peptide […] (15 amino acids) (SEQ.ID.NO. 3) represents amino acids 103-117 of mature CFTR, peptide […] (31 amino acids) (SEQ.ID.NO. 4) represents amino acids 881-911 of mature CFTR. Peptides were made up as a stock solution in F-12 medium containing 1 μM/μl based on the purity reported by the manufacturer. Peptides were diluted in F-12 tissue culture medium prior to use in assays.
Bacterial ingestion assay. Cells were released from monolayers in tissue culture flasks by 5 min. of incubation with trypsin-versene mixture (BioWhitaker, Walkersville, Md.), washed, counted and seeded into 96-well tissue culture plates at 10^5 cells/well in supplemented F-12 medium and incubated at 37° C. in 5% CO2. Fresh cultures of P. aeruginosa grown overnight at 37° C. on a tryptic soy agar plate were suspended in supplemented F-12 medium to prepare the bacterial inoculum. Then 10^6 colony forming units (cfu) of the bacterial inoculum were added per well of 10^5 epithelial cells. Bacteria were allowed to invade the epithelial cells for 3 to 4 hours at 37° C., after which nonadherent bacteria were removed by washing. The remaining steps of the assay and the steps involved in the controls have previously been described. Three to 9 replicates were obtained per point, and analyzed using analysis of variance (ANOVA) and the Fisher PLSD statistic to determine pairwise differences. […]

[2] = system: P. aeruginosa strain PAO1; experiment: Neonatal mouse model of infection, CFTR peptide added to bacterial inoculum; type: in vivo; conditions: 7-day old mice, 10 nM peptide added to PAO1 inoculum, intranasal, 24 hours after infection; for Median cfu (10th-90th percentile cfu) P. aeruginosa internalized per mg. lung tissue: gentamicin-exclusion
Procedure: Neonatal mouse model of infection. Seven-day old neonatal Balb/c mice were infected with ˜10^8 cfu of stain PAO1 delivered intranasally as described, with the addition of 10 nM of a synthetic peptide corresponding to either the first or fourth extracellular domains of CFTR to the bacterial inoculum. Twenty-four hours later 7 animals were killed, right and left lungs removed, weighed and dispersed into single cell suspensions by grinding through a fine-mesh wire screen. An aliquot was removed, Triton X-100 added to a final concentration of 0.5% to release intracellular bacteria and the total cfu of bacteria present in each lung determined. The remaining portion of the lung cell suspension was treated with 300 μg gentamicin/ml for 60 minutes to kill extracellular P. aeruginosa. The cells were then pelleted in a centrifuge (400×g, 10 minutes), washed twice in RPMI medium, and resuspended in 200 μl of 0.5% Triton X-100 to release intracellular bacteria that survived the gentamicin treatment. These suspensions were diluted and plated for bacterial enumeration. The cfu per milligram lung weight was calculated and differences among groups analyzed by nonparametric statistics (Mann-Whitney U test) due to outliers in some groups.
To confirm that binding and internalization of P. aeruginosa by the first predicted extracellular domain of CFTR is important in resistance to lung infection, 7-day old Balb/c mice were nasally inoculated with 10^8 cfu of P. aeruginosa stain PAO1 mixed with either 10 nM of the peptide corresponding to the first or fourth predicted extracellular domains of CFTR and the course of bacterial infection was followed for over 24 hours. […] Thus, inhibiting P. aeruginosa internalization by blocking the bacterial interaction with CFTR in the lung leads to increased bacterial counts in this tissue, indicating an important mechanism for clearance of P. aeruginosa from the lung following inhalation of these organisms.

[3] = listed as First extracellular domain
[4] = listed as first extracellular domain peptide
[5] = listed as Fourth extracellular domain

| Sequence | Mean cfu of P. aeruginosa internalized (standard deviation) ([1]; 0.001 nanomoles peptide) | Mean cfu of P. aeruginosa internalized (standard deviation) ([1]; 0.01 nanomoles peptide) | Mean cfu of P. aeruginosa internalized (standard deviation) ([1]; 0.1 nanomoles peptide) | Mean cfu of P. aeruginosa internalized (standard deviation) ([1]; 1 nanomoles peptide) | Median cfu (10th-90th percentile cfu) P. aeruginosa internalized per mg. lung tissue [2, 3] | Median cfu (10th-90th percentile cfu) P. aeruginosa internalized per mg. lung tissue [2, 4] | Median cfu (10th-90th percentile cfu) P. aeruginosa total per mg. lung tissue [2, 3] | Median cfu (10th-90th percentile cfu) P. aeruginosa total per mg. lung tissue [2, 4] | Median cfu (10th-90th percentile cfu) P. aeruginosa internalized per mg. lung tissue [2, 5] | Median cfu (10th-90th percentile cfu) P. aeruginosa internalized per mg. lung tissue ([2]; listed as fourth extracellular domain peptide) | Median cfu (10th-90th percentile cfu) P. aeruginosa total per mg. lung tissue [2, 5] | Median cfu (10th-90th percentile cfu) P. aeruginosa total per mg. lung tissue ([2]; listed as fourth predicted extracellular domain) |
| --- | --- | --- | --- | --- | --- | --- | --- | --- | --- | --- | --- | --- |
| GRIIASYDPDNKEER (listed as Homo Sapiens) [First domain] | 5.533 × 10^4 (5.2986 × 10^3) cfu | 3.482 × 10^4 (3.8473 × 10^3)^a cfu | 2.513 × 10^4 (1.6609 × 10^3)^a cfu | 2.383 × 10^4 (4.6207 × 10^3)^a cfu | 0 (0-278) cfu per mg lung tissue | virtually no internalized P. aeruginosa | 152,419 (37,860-519,612) cfu per mg lung tissue | ~1.5×10^5 cfu per mg lung tissue | – | – | – | – |
| LWLLGNTPLQDKGNSTHSRNNSYAVIITSTS (listed as Homo Sapiens) [Fourth domain, reference compound] | 6.978 × 10^4 (5.4745 × 10^3) cfu | 7.23 × 10^4 (3.6721 × 10^3) cfu | 7.488 × 10^4 (5.0653 × 10^3) cfu | 8.708 × 10^4 (4.0519 × 10^3) cfu | – | – | – | – | 13,246 (3,578-49,558) cfu per mg lung tissue | > 10^4 cfu per mg lung tissue | 20,450 (4,000-61,008) cfu per mg lung tissue | ~2×10^4 cfu per mg lung tissue |
